Reference: US20160376659A1, “Breast Cancer Biomarker” (The University of Manchester, priority 2015, published 2016)
Entries after “also recorded” stand apart in the source; their conditions may differ.

Columns and labels:
[1] = tested on: Notch1; assay: Notch1 activity in MCF7, MDA-MB-231 and BT474 cells; type: cell-based
[2] = tested on: Notch4; assay: Notch4 activity in MCF7, MDA-MB-231 and BT474 cells; type: cell-based

| Structure (SMILES) | Notch1 activity [1] | Notch4 activity [2] |
| --- | --- | --- |
| C[C@H](NC(=O)Cc1cc(F)cc(F)c1)C(=O)N[C@H](C(=O)OC(C)(C)C)c1ccccc1 [DAPT] | inhibit | no Notch4; also recorded: not NOTCH4 activity |
| C[C@H](NC(=O)Cc1cc(F)cc(F)c1)C(=O)N[C@@H]1C(=O)N(C)c2ccccc2-c2ccccc21 [DBZ] | inhibit | no Notch4; also recorded: not NOTCH4 activity |
